Assay [1] relates to SARS-CoV-2 Delta variant. It counts as cell-based.
The subject of assay [2] is SARS-CoV-2 Delta variant. The conditions noted are these: cited from earlier work.

One may read the EC90 as the concentration at which the effect reaches the 90% level.

SMILES strings stand for the structures.

In the case of `CC(C)(C)[C@H](NC(=O)C(F)(F)F)C(=O)N1C[C@H]2[C@@H]([C@H]1C(=O)N[C@H](C#N)C[C@@H]1CCNC1=O)C2(C)C` [NMR, nirmatrelvir], the “EC90 for the Delta variant multiplied by a factor of 3” value in the assay with SARS-CoV-2 Delta variant [1] was found to be 0.3 µg/mL. In addition, the “EC90 for the Delta variant” value in the assay on SARS-CoV-2 Delta variant [2] (conversion of 0.149 µM) is ~ 100 ng/mL. Further, the EC90 in the assay on SARS-CoV-2 Delta variant [2] (used in PBPK simulation study) is 149 nM.

The values above are taken from publication PMC11087525 (Scientific Reports, 2024).
